Measured values published in ChEMBL document CHEMBL5154919, “New ZW4864 Derivatives as Small-Molecule Inhibitors for the β-Catenin/BCL9 Protein-Protein Interaction” (ACS Med Chem Lett, 2022).
pIC50, pKi: −log10 of the molar value.

What was measured:
[1] = molecular target: T1, beta-catenin-B-cell lymphoma 9 protein complex (Homo sapiens, UniProt P35222); assay: Inhibition of full length beta-catenin (1 to 781 residues) (unknown origin) expressed in Escherichia coli BL21 (DE3)-N-terminal biotinylated human BCL9 (350 to 375 residues) protein-protein interaction incubated for 1 hr by Alphascreen assay
T1 sequence (P35222 whole entry): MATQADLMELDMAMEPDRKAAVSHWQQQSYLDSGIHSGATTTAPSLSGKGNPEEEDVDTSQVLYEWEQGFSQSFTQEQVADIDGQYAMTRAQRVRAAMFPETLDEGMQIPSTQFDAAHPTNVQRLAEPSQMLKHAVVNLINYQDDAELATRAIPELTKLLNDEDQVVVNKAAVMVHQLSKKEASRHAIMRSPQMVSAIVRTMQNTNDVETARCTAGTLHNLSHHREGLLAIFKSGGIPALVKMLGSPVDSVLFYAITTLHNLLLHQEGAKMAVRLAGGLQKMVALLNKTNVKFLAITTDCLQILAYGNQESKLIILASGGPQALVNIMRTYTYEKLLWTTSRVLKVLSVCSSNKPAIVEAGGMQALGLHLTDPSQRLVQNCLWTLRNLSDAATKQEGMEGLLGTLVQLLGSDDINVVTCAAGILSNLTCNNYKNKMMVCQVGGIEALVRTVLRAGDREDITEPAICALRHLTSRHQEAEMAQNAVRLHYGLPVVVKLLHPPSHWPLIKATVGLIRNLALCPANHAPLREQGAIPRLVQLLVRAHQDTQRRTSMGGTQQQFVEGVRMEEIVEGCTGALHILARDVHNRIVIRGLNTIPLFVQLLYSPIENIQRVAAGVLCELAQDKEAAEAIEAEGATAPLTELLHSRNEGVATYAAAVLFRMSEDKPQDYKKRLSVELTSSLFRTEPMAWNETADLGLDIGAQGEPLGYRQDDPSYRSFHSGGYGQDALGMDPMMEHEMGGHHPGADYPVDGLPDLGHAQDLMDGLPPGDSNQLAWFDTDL
T1 sequence (O00512 whole entry): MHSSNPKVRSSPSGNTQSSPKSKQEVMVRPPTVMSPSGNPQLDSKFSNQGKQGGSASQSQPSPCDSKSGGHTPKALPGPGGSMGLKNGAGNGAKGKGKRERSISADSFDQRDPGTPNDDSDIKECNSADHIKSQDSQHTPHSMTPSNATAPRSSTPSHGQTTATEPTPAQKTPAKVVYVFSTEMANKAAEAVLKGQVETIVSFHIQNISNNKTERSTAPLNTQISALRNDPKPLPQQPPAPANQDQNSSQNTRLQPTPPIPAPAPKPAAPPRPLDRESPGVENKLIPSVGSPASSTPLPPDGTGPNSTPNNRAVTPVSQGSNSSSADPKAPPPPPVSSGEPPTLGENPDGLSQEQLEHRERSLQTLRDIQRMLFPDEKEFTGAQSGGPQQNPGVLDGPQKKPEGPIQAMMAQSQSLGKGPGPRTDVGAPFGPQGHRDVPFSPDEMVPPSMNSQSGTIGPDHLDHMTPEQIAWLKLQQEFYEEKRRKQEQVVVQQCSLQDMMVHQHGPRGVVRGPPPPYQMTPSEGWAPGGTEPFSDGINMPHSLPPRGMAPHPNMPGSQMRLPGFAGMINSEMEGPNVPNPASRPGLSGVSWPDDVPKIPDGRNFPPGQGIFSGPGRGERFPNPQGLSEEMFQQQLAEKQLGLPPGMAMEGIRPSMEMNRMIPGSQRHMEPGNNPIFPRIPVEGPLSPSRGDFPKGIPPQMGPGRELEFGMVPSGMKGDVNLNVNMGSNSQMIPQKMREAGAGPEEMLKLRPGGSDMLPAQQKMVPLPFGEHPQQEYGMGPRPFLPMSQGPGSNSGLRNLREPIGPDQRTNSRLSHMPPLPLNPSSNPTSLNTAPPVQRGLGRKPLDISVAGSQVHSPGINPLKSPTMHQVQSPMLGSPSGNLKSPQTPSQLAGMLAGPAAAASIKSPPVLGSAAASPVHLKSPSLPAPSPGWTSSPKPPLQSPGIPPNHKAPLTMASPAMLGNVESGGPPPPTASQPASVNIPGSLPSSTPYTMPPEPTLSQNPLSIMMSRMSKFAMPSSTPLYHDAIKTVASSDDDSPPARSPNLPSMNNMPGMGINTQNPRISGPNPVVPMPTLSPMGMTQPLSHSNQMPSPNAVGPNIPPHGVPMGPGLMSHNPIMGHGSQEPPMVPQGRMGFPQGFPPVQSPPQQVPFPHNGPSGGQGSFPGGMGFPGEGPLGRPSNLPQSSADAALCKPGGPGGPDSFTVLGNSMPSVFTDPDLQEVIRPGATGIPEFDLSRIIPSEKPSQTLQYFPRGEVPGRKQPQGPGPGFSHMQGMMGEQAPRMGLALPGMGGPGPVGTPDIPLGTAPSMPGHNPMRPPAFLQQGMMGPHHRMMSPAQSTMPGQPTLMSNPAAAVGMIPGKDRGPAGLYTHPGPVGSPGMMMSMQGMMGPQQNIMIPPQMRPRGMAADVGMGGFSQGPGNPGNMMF

SW480 = assay: Effect of Wnt/beta-Catenin signaling pathway in human SW480 cells assessed as decrease in Cyclin D1 level at 20 uM incubated for 24 hrs by Western blot analysis; assay type: functional, cell-based; details: DDE = dose-dependent effect
CYP1A2 = molecular target: T2, CYP1A2 (Homo sapiens, UniProt P05177); assay: Inhibition of CYP1A2 in human liver microsomes using phenacetin at 10 uM in presence of NADPH incubated for 10 mins; assay type: ADME, Microsome; details: probe phenacetin
T2 sequence (P05177 whole entry): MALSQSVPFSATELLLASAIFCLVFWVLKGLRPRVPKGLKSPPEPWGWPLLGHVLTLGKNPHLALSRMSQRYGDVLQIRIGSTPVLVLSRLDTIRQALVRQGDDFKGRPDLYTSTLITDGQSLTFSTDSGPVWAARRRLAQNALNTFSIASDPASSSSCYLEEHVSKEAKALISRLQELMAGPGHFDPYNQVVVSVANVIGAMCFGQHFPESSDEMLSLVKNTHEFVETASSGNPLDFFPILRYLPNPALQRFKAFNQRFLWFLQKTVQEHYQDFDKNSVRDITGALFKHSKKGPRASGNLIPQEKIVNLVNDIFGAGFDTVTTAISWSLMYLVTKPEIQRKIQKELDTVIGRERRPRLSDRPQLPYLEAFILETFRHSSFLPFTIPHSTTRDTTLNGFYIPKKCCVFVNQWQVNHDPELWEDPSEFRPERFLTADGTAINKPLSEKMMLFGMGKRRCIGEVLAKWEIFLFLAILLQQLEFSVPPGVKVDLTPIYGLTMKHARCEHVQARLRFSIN

With `CC(C)(Oc1cccc(N2CCC[C@@H](C(=O)N(Cc3ccc(-c4cnc5[nH]ccc5c4)cc3)C3CC3)C2)c1)C(=O)N1CCNCC1.Cl` the pIC50 [1] was 5.47, the pKi [1] was 5.57 and the inhibition (SW480) was “Dde”. For the same compound, the inhibition at 10 min, 10 µM (CYP1A2) was 31%.
